Measurements as given in article PMC5587642, “A Novel Benzocoumarin-Stilbene Hybrid as a DNA ligase I inhibitor with in vitro and in vivo anti-tumor activity in breast cancer models” (Scientific Reports, 2017).

Assays:
MDA-MB-231 cells [1] = assay: Clonogenic survival assay; format: cell-based, human; conditions: 0.75, 1.5 and 3 µM; 24 and 48 h treatment
Procedure: Clonogenic survival assay was performed as described previously[16] with modifications. MDA-MB-231 cells (100 cells) were seeded in 12 well plates for 24 h. Cells were then treated with different concentrations of compound 19 (0.75, 1.5 and 3 µM) for 24 and 48 h. After drug treatment, culture medium was replaced with fresh medium and cells were cultured for another 10 days. After 10 days, the cells were washed with PBS carefully and stained with a solution containing 6% glutaraldehyde and 0.5% crystal violet.

MDA-MB-231 cells [2] = assay: Annexin V-FITC/PI apoptosis flow cytometry; format: cell-based, human
Procedure: Apoptotic cell death of MDA-MB-231 cells upon treatment with compound 19 was measured using a commercially available Annexin V-FITC apoptosis detection kit according to the manufacturer’s protocol (BD Biosciences, San Diego, CA). Briefly, cells were treated with different concentrations (0, 6 and 12 µM) of compound 19 for 24 and 48 h. The cells were then harvested, washed with cold PBS and stained with Annexin V-FITC and propidium iodide (PI) in binding buffer at room temperature in the dark. The stained cells were analyzed by fluorescence-activated cell sorting using a FACS-Calibur instrument (BD Biosciences, San Diego, CA) equipped with CellQuest 3.3 Software.

[3] = Stability in simulated gastric and intestinal fluids; format: in vitro ADME; conditions: 2 µg/mL, up to 180 min
Procedure: Simulated gastric fluid (SGF) and simulated intestinal fluid (SIF) were prepared according to USP specifications. The compound 19 was incubated in SGF (0.2 g NaCl, 0.32 g pepsin, 0.7 mL HCl and triple distilled water up to 100 mL, pH 1.2) or SIF (0.680 g […], 0.616 g NaOH, 1 g pancreatin and triple distilled water up to 100 mL, pH 6.8). From the stock solution of compound 19 (1 mg/mL), equivalent concentration of 2 μg/mL of compound 19 were added to 1 mL of preincubated reaction mixture of SGF and SIF, at 37 °C in a shaking water bath in triplicate. 100 μL aliquots of sample was collected at each time point at 0, 5, 15, 30 and 60 min for SGF and 0, 5, 15, 30, 60 90, 120 and 180 min for SIF according to the human gastrointestinal transit time, followed by quenching with acetonitrile, then vortexed and centrifuged at 12000 rpm for 5 min. The supernatant was collected and analyzed by HPLC. The graph was plotted between % drug remaining and incubation time for SGF and SIF.

[4] = molecular target: T1, DNA ligation (hLigI) in MDA-MB-231 cell lysate (Homo sapiens, UniProt P18858); assay: Ex-vivo ligation assay with lysate of treated cells; format: cell-based; conditions: MDA-MB-231, treated 48 h
T1 construct: endogenous in cells; host or cells: MDA-MB-231
T1 sequence (P18858 whole entry): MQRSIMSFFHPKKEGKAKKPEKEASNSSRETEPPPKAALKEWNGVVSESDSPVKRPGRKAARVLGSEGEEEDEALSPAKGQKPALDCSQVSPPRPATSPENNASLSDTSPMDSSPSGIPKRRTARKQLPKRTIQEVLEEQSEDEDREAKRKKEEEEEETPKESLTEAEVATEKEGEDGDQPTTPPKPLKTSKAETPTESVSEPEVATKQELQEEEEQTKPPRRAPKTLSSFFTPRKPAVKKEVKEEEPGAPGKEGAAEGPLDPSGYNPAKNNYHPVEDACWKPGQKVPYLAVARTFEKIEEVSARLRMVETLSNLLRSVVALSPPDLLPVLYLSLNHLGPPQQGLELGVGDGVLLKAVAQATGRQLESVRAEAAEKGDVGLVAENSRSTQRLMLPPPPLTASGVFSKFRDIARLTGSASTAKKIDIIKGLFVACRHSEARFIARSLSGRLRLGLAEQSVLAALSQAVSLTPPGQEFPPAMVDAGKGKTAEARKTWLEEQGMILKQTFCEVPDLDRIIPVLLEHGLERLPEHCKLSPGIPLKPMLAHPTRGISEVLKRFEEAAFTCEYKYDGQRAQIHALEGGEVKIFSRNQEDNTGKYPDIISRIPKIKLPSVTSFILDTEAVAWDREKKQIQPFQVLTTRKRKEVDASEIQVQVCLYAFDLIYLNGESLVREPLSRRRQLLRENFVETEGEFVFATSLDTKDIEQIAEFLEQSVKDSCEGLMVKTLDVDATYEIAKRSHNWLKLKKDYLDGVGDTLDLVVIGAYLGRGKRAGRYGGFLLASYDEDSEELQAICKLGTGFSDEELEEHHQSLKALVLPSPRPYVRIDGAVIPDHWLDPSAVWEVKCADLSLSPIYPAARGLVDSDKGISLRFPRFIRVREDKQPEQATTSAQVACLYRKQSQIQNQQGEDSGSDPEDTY
Procedure: Cells (MDA-MB-231) were seeded in 6 well plates and treated either with vehicle control (DMSO) or with different concentrations (6 and 12 µM) of compound 19 for 48 h. After the treatment cell lysate was prepared and western blotting was performed as described previously. Briefly, the cells were lysed by very brief sonication. Sonicated samples were centrifuged and the supernatant was collected and used for ligation assay and western blotting.
The MDA-MB-231 and 4T1 cells were treated with different concentrations of compound 19 for 48h. Cell lysate were prepared as described previously ^6 for the ligation assay. Here we used same DNA substrate which was used in FEN1 flap cleavage assay so that we can check the activity of hLigI and FEN1 proteins in compound 19 treated samples. The reactions were performed as described previously ^6. In the Supplementary Fig. 74 cleaved product remain (25 mer) same. This cleaved product occurs after the cleavage of 25+6 mer oligo by FEN1 protein, since the cleaved product (25 mer) remains same in treated as well as in control samples we can conclude that the compound 19 unable to inhibit the FEN1 protein inside the cells. The cleaved product (25 mer) make a double strand nicked substrate for hLig I protein with 27 mer and 52 mer oligo used in the reaction. hLigI protein gives rise to ligated (52 mer oligo) product after the completion of reaction. […]

hLigI and DNA complex = molecular target: T2, hLigI and DNA complex (Homo sapiens, UniProt P18858); assay: Electrophoretic mobility shift assay (EMSA); format: binding; conditions: 120, 250, 500 µM
T2 construct: made in house
T2 sequence (P18858 whole entry, one chain of several): as the sequence (P18858 whole entry) above
Procedure: EMSA was performed as described previously. Briefly, in 20 μl reaction volume 2 pmol non-ligatable nicked DNA substrate was incubated with DMSO (vehicle control) or with different concentrations (120, 250, 500 µM) of compound 19 incubated with 10 pmol of hligI in ligation buffer. After the incubation, samples were separated by 6.5% native PAGE and bands were detected and imaged by Image Quant LAS 4010 (GE Life sciences).

Structure (SMILES): COc1cc(/C=C/c2cc(=O)oc3c2ccc2ccccc23)cc(OC)c1 [Compound 19, (E)-4-(3,5-dimethoxystyryl)-2H-benzo[h]chromen-2-one]
- Colony forming ability (MDA-MB-231 cells [1]): inhibited colony forming ability of cells
- Apoptosis (MDA-MB-231 cells [2]; 6 µM, 24 h): 10.78 ± 1.21%
- Apoptosis (MDA-MB-231 cells [2]; 6 µM, 48 h): 18.68 ± 4.86%
- Apoptosis (MDA-MB-231 cells [2]; 12 µM, 24 h): 16.37 ± 1.18%
- Apoptosis (MDA-MB-231 cells [2]; 12 µM, 48 h): 36.17 ± 3.43%
- Stability in SGF (simulated gastric fluid) ([3]; pH 1.2, 37 °C): 83.19 ± 3.22%
- Stability in SIF (simulated intestinal fluid) ([3]; pH 6.8, 37 °C): 96.45 ± 0.79%
- DNA ligation capacity of lysate of treated cells [4]: reduced capacity for DNA ligation
- hLigI and DNA complex formation (EMSA) (hLigI and DNA complex): decreased the hLigI and DNA complex formation
